Test results taken from patent US9550811B2, “Peptide scaffold design” (BIONOR IMMUNO AS, priority 2010, dated 2017).
Where no end group is shown, it is not given here.

Assays:
DC-cells = test: Cell penetration assay: staining for biotinylated peptides, dendritic cells gated as CD11c+; format: cell-based, human; conditions: low concentration of peptides (208 uM)
Protocol: A set of peptides were biotinylated on N-terminal, and different combinations of aminoacids, with respect to length and type, were added to the sequence box X^1, X^3 and X^4 in the peptides as illustrated by the diagram below. The peptides were tested on cells grown from one individual blood donor.
96-well U-bottom polystyrene plates (NUNC, cat no: 163320) were used for staining of human PBMCs. Briefly, 8 ul of N- or C-terminally biotinylated peptides according to table 1 or table 2 (i.e. 5 mM, 2.5 mM & 1.25 mM tested for each peptide) were incubated at 37° C. for 2 h with 40 ul of PBMC (12.5×10^6 cells/ml) from blood donors. Cells were then washed 3× with 150 ul of Cellwash (BD, cat no: 349524), followed by resuspension of each cell pellet with 100 ul of Trypsin-EDTA (Sigma, cat no: T4424), then incubated at 37° C. for 5 min. Trypsinated cells were then washed 3× with 150 ul of Cellwash (BD, cat no: 349524), followed by resuspension with BD Cytofix/Cytoperm™ plus (BD, cat no: 554715), then incubated at 4° C. for 20 min according to manufacturer. Cells were then washed 2× with 150 ul PermWash (BD, cat no: 554715). Cells were then stained with Streptavidin-APC (BD, cat no: 554067) & Anti-hCD11c (eBioscience, cat no: 12-0116) according to manufacturer at 4° C. for 30 min aiming to visualize biotinylated peptides & dendritic cells, respectively. Cells were then washed 3× with 150 ul PermWash, followed by resuspension in staining buffer (BD, cat no: 554656) before flow cytometry. Dendritic cells were gated as CD11c+ events outside lymphocyte region (i.e. higher FSC & SSC signals than lymphocytes). 200 000 total cells were acquired on a FACSCanto II flow cytometer with HTS loader, and histograms for both total cells & dendritic cells with respect to peptide-fluorescence (i.e. GeoMean) were prepared.
As shown in table 4 the peptides according to the invention had the ability to allocate through the cell membrane.

human PBMCs = format: cell-based

Sequence | Results on DC-cells (geomean peptide-fluorescence) (DC-cells; BC 16) | Results on DC-cells (geomean peptide-fluorescence) (DC-cells; BC43) | Intracellular staining, median (human PBMCs)
RGYIPLVGAPLGRRRVARALAHGVRV [SP10_c] (RGYIPLVGAPLGRRRVARALAHGVRV-NH2) | 6904 |  | 
RGYIPLVGAPLGRRVARALAHGVRV [SP3_c] (RGYIPLVGAPLGRRVARALAHGVRV-NH2) | 18505 | 26308 | 
RGYIPLVGAPLGRRVARALAHGVRV [SP24] (RGYIPLVGAPLGRRVARALAHGVRV-NH2) | 18181 | 63639 | 
RNIVPZVVTARRNIVPZVVTAB [BI-050sc5] | 13648 | 15549 | 
RNLVPMVATVBRRNLVPMVATVB [BI-050sc2] | 6019 | 11584 | 
RNLVPMVATVBRRNLVPMVATVB [compound 18] |  |  | 3.86
RNLVPMVATVRRNLVPMVATVB [BI-050sc1] | 6056 | 6160 | 
RRGGGQIVGGVYLLPRRGPRLGVRATR [310-11-n-sc] | 25236 |  | 
RRGYIPLVGAPLGBGRVARALAHGVRV [SP2_c] | 323 | 13341 | 
RRGYIPLVGAPLGLRRVARALAHGVRV [SP17_c] | 11830 |  | 
RRGYIPLVGAPLGRRRVARALAHGVRV [SP6_c] (RRGYIPLVGAPLGRRRVARALAHGVRV-NH2) | 17964 | 38487 | 
RRGYIPLVGAPLGRRVARALAHGVRV [SP5_c] (RRGYIPLVGAPLGRRVARALAHGVRV-NH2) | 16908 | 24403 | 
RRNYVTGNIPGBRGITFSIFLIVS [SP61_2] | 128330 | 150491 | 
RRRGYIPLVGAPLGBRVARALAHGVRV [SP8_c] | 9159 | 23763 | 
RRVTGNIPGSTYSGBRGITFSIYLIVS [SP25] | 11552 |  | 
SAYERMCNILKGKFQTAAQRAMM [18b] | 29740 | 33597 | 
WGYIPLVGAPLGRRVARALAHGVRV [SP12_c] (WGYIPLVGAPLGRRVARALAHGVRV-NH2) | 37100 | 43386 | 
WWGGGQIVGGVYLLPRRGPRLGVRAT [SP11b_1] | 64047 |  | 
WWGYIPLVGAPLGRRRVARALAHGVRV [SP22] | 61597 | 18624 | 
WWGYIPLVGAPLGRRVARALAHGVRV [SP13_c] (WWGYIPLVGAPLGRRVARALAHGVRV-NH2) |  | 60307 | 
WWGYIPLVGAPLGRRVARALAHGVRV [SP21] (WWGYIPLVGAPLGRRVARALAHGVRV-NH2) | 26525 | 4294 | 
WWGYIPLVGAPLGRVARALAHGVRV [SP23] | 17084 | 12801 | 
WWGYLPAVGAPIRRVIRVIAHGLRL [SP51_1*] | 66582 |  | 
WWIRNLGRVIETLTRRLZGYIPLIGA [SP42_1] | 73973 |  | 
WWNYVTGNIPGBRGITFSIFLIVS [SP61_3] | 47182 | 36803 | 
WWNYVTGNIPGRRGITFSIFLIVS [SP61_4] | 12829 |  | 
WWSRNLGKVIDTLTCRRLMGYIPLVGA [SP42b_1] | 17628 |  | 
YGRKKRRQRRR [compound 4, Positive control (tat), reference compound] |  |  | 4.43
